Experimental data published in US9562044B2, “2-acylaminothiazole derivative or salt thereof” (ASTELLAS PHARMA INC., priority 2013, dated 2017).

Tests used:
human c-Mpl receptor [1] = molecular target: T1, human c-Mpl receptor (Homo sapiens, UniProt P40238); assay: Human c-Mpl-introduced Ba/F3 cell proliferative activity; type: cell-based; conditions: concentration showing 30% proliferation; 100% = positive control at 1 μM
T1 construct: expressed in transfected cells
T1 sequence (P40238 26-635): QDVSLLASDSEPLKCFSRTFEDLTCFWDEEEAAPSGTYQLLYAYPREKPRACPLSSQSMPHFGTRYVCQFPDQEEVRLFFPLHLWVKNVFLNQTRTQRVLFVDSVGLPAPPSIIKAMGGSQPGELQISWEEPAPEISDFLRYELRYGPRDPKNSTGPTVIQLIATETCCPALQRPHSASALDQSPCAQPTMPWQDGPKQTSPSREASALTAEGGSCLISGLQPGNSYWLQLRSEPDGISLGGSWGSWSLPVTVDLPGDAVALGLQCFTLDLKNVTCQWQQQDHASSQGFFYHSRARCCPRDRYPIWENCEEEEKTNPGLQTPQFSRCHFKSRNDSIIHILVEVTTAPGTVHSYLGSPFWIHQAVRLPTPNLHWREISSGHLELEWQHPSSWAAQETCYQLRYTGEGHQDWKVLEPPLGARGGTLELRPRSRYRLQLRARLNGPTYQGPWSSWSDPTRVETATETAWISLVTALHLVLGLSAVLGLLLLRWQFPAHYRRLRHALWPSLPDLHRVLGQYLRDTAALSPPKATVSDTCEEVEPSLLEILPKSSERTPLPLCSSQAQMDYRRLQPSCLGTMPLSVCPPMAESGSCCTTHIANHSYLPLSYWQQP
Procedure: Evaluation of Human c-Mpl-Introduced Ba/F3 Cell Proliferative Activity
The human c-Mpl-introduced Ba/F3 cell proliferative activity was measured by the following method.
As a positive control, 1-(5-{[4-(4-chloro-2-thienyl)-5-{[(2R)-2-methylpyrrolidin-1-yl]methyl}-1,3-thiazol-2-yl]carbamoyl}-3-fluoropyridin-2-yl)piperidine-4-carboxylic acid hydrochloride, which is disclosed as Example 315 in Patent Document 1 and represented by the formula A1, was used. It is known that the compound has a good human c-Mpl-introduced Ba/F3 cell proliferative activity as disclosed in Table 1 of Patent Document 1.
a) Construction of Human c-Mpl Receptor Expression Vector
A human c-mpl receptor gene (GenBank Accession No. M90102.1) was introduced into an expression vector pEF-BOS (Nucleic Acids Res. 18, 5322, 1990).
b) Construction of Cell Stably Expressing Human c-Mpl Receptor
A human c-Mpl receptor expression vector was introduced into a Ba/F3 cell (RIKEN BRC: RCB0805). For the introduction, an electroporation method was used. pEF-BOS-c-mpl (10 μg), pSV2bsr (1 μg, Kaken Pharmaceutical Co., Ltd.) and 1×10^7 Ba/F3 cells were put into a cuvette having a gap width of 0.4 cm, and electroporated under the conditions of 1.5 kV (25 μF) by a Gene Pulser (registered trademark) (BioRad). The cells were cultured in an RPMI-1640 culture medium containing 0.5% WEHI conditioned media (BD Biosciences) and 10% fetal bovine serum for 3 days, and then cultured in an RPMI-1640 culture medium, to which 10 μg/mL blasticidin had been further added, for 30 days to acquire a drug-resistant clone.
c) Measurement of Cell Proliferative Activity
The cells obtained in b) above was cultured in an RPMI-1640 culture medium containing 0.5% WEHI conditioned media, 10% fetal bovine serum, and used. On the day before the experiment, test substances (final concentration of 100 nM to 10 μM) which had been dissolved in a culture medium for assay (RPMI-1640 culture medium containing 10% fetal bovine serum) were added to a 384-well plate (Lot No. 781185, Greiner Bio-One). The cells in the culture medium that had been replaced with a culture medium for assay were dispensed into a 384-well plate, to which the test substances had been added in advance, to 1×10^4 cells/well, and cultured at 37° C. and 5% CO2 overnight. On the experiment day, a solution of a Cell Counting Kit (Dojindo Laboratories) was added to each well of the 384-well plate and cultured at 37° C. and 5% CO2 for about 5 hours. Thereafter, the absorbance (absorption wavelength of 450 nm) of each well was measured using Safire^2™ (TECAN) and used as the index of the number of cells. Further, as a negative control, a well in which the test substance had been not added was prepared.
The absorbance of the well without the test substance was set to 0%, and the absorbance in the case where the positive control was added at a final concentration of 1 μM was set to 100%. From the absorbance in the case where the test substance had been added, a cell proliferation rate (%) was calculated. From the obtained results, the test substance concentration showing 30% proliferation was calculated as an EC30 value by a logistic regression method.

isolated rat bladder = assay: Transmural electrical field stimulation-induced contraction of isolated rat bladder; conditions: AUC of contractile response, value before treatment = 100%, SD female rat bladder strip, read-out: Enhancement rate of isolated bladder contraction (% of pre)
Procedure: Effects on Transmural Electrical Field Stimulation-Induced Contraction of Isolated Rat Bladder
As an effect on the nerve stimulation-dependent bladder contraction in vitro, the effect of the Example compound of the present invention in the transmural electrical field stimulation-induced contraction of isolated rat bladder was measured by the following method. That is, from the bladder isolated from a Spraque-Dawley (SD) female rat (Japan SLC, Inc.), a longitudinal bladder strip having a width of about 2 mm and a length of about 10 mm was prepared. The prepared bladder strip was suspended in an organ bath filled with 10 mL of a Krebs-Henseleit solution. The Krebs-Henseleit solution was bubbled with 95% O2 and 5% CO2, and kept at 37° C. After stabilization at an initial tension of 1 g, contraction was induced twice with 60 mM KCl. The strip was washed with the Krebs-Henseleit solution and stabilized, and then contraction was induced with transmural electrical field stimulation at 20 V (stimulation frequency of 8 Hz, pulse width of 0.3 msec, and stimulation time of 10 seconds) by an electrical stimulation device (Nihon Kohden Corporation). At an interval of 2 minutes, transmural electrical field stimulation was repeated and the voltage was adjusted to make the contractile amplitude about 50% of the contractile response by 20 V. After stabilization of the contraction by the transmural electrical field stimulation, 10 μL of the test substance (final concentrations of 3 μM, 10 μM, and 30 μM), which had been dissolved in 100% dimethylsulfoxide in advance was added. The test substance was cumulatively administered at the next concentration after the contractile response at a lower concentration had been stabilized. The responses were put into a personal computer through PowerLab (registered trademark) (AD Instruments), and analyzed with LabChart (registered trademark) (AD Instruments). The area under the response of each contractile response (area under curve, AUC) was calculated and the value before the treatment with the test substance was set to 100%. Based on this, the enhancement rate of the isolated bladder contraction (% of pre) after the treatment with the test substance was calculated.
The enhancement rates of the isolated bladder contraction due to several 10 μM Example compounds which are the compounds of the formula (I) are shown in Table 2.

human c-Mpl receptor [2] = molecular target: T1, human c-Mpl receptor; conditions: positive control; as disclosed in Patent Document 1; cited from earlier work

| SMILES | melting point | further results |
| --- | --- | --- |
| COc1ccc(-c2nc(NC(=O)c3cnc(N4CCC(C(=O)O)CC4)cn3)sc2CN2CCCC2C(C)C)cc1C(F)(F)F (stereo not drawn) [Example 188] | – | Test Example 2 EC30 (human c-Mpl receptor [1]): >10 µM; activity at 10 µM (isolated rat bladder): 128% |
| C[C@@H]1CCCN1Cc1sc(NC(=O)c2cnc(N3CCC(C(=O)O)CC3)cn2)nc1-c1cc(Cl)cs1 [Example 206, 1-(5-{[4-(4-chloro-2-thienyl)-5-{[(2R)-2-methylpyrrolidin-1-yl]methyl}-1,3-thiazol-2-yl]carbamoyl}pyrazin-2-yl)piperidine-4-carboxylic acid] | 201 °C | – |
| C[C@@H]1CCCN1Cc1sc(NC(=O)c2cnc(N3CCC(C(=O)O)CC3)c(F)c2)nc1-c1cc(Cl)cs1.Cl [Example A1, 1-(5-{[4-(4-chloro-2-thienyl)-5-{[(2R)-2-methylpyrrolidin-1-yl]methyl}-1,3-thiazol-2-yl]carbamoyl}-3-fluoropyridin-2-yl)piperidine-4-carboxylic acid hydrochloride] | – | Human c-Mpl-introduced Ba/F3 cell proliferative activity (Table 1 of Patent Document 1) (human c-Mpl receptor [2]): good |

Continued, in another order:

| melting point | SMILES | further results |
| --- | --- | --- |
| 194 °C | CC[C@@H]1CCCN1Cc1sc(NC(=O)c2cnc(N3CCC(C(=O)O)CC3)cn2)nc1-c1ccc(OC)c(C(F)(F)F)c1 [Example 8, 1-{5-[(5-{[(2R)-2-ethylpyrrolidin-1-yl]methyl}-4-[4-methoxy-3-(trifluoromethyl)phenyl]-1,3-thiazol-2-yl)carbamoyl]pyrazin-2-yl}piperidine-4-carboxylic acid] | – |
| 136 °C | COc1cc(-c2nc(NC(=O)c3cnc(N4CCC(C(=O)O)CC4)cn3)sc2CN2CCCC[C@H]2C)cc(C(F)(F)F)c1 [Example 207, 1-{5-[(4-[3-methoxy-5-(trifluoromethyl)phenyl]-5-{[(2R)-2-methylpiperidin-1-yl]methyl}-1,3-thiazol-2-yl)carbamoyl]pyrazin-2-yl}piperidine-4-carboxylic acid] | – |
